From patent US20120328721A1, “ALOE VERA SPROUT CONCENTRATE OR EXTRACT HAVING SUPERIOR SKIN CELL GROWTH PROMOTION, ANTIOXIDANT, AND ANTI-ALLERGY EFFECTS” (l, priority 2009, published 2012) come the findings set out here.

The test system of this assay is type I collagen mRNA. The experiment in a line: Promotion of collagen synthesis (type I collagen mRNA, RT-PCR). The format is cell-based. To be noted: positive control vitamin C 100 μg/ml. As for the experimental part:
To evaluate the inhibitory activity against MMP-1 gene expression of Aloe vera shoot concentrate, the change of mRNA expression was measured. RNA was extracted by using Trizol (Invitrogen, USA) according to the guanidium thiocyanate-phenol-chloroform extraction method, and then RT-PCR was carried out by using an All-in-one RT-PCR kit (SuperBio, Korea). PCR (reverse transcription at 50° C. for 30 minutes, inactivation of reverse transcriptase at 96° C. for 3 minutes, 25 cycles of 94° C. for 1 minute, 48° C. for 1 minute and 72° C. for 1 minute) was carried out by using an MMP-1 primer of Table 9, and actin was used as a control group. To evaluate the activity for the promotion of collagen synthesis of Aloe vera shoot concentrate, the expression of collagen mRNA was measured. RT-PCR was carried out with the same method as Experimental Example 9 except that the condition was 30 cycles of 94° C. for 1 minute, 62° C. for 1 minute and 72 ° C. for 1 minute, and collagen primer of Table 11 was used.

In the case of `O=C1O[C@H]([C@@H](O)CO)C(O)=C1O` [vitamin C], the “Type I collagen expression amount (%)” value is, setting by setting: (column 100 μg/ml) 131.1%; (column 200 μg/ml) 156.3%.
